Test results as given in US20260103474A1, “NOVEL COMPOUNDS FOR THE DIAGNOSIS OF TDP-43 PROTEINOPATHIES” (AC IMMUNE SA, priority 2022, published 2026).

Experiments:
[1] = tested on: Abeta and Tau aggregates in AD tissue; experiment: Classical autoradiography on Abeta- and Tau-rich AD brain tissue sections; format: binding, human; conditions: tritiated compound 10 nM; alone or in self-competition
Protocol: All tissues were collected from donors for or from whom a written informed consent for a brain autopsy and the use of the material and clinical information for research purposes had been obtained by the respective brain banks. All samples were anonymized and coded. Frozen brain tissue blocks with confirmed Abeta and Tau pathology upon autopsy were processed using a cryotome to generate sections of 10 μm in thickness and mounted on glass slides. Sections were kept at −80° C. until use.
Brain sections were fixed for 15 minutes at 4° C. with 4% formaldehyde on ice and washed three times for eight minutes with 1×PBS at RT. Sections were blocked in assay buffer for 30 minutes (50 mM Tris-HCl, 0.9% NaCl+0.1% BSA). Cold test compound (Compound 1) was diluted in assay buffer to 4 μM and applied on half of the sections for 40 minutes at RT to determine non-specific binding. The remaining half of the sections were only incubated with assay buffer (total binding). […]
Sections were subsequently dried under a stream of air and mounted with a copper-based adhesive strip. Bound radioactivity was quantified by exposing the slides in a real-time autoradiography system (Beaquant™ AI4R) for 2 hours with measurement settings configured for tritium. Beavacq software (AI4R) was used to acquire the image which was subsequently quantified using Beamage image analysis software (AI4R).

[2] = molecular target: T1, Human brain derived TDP-43 aggregates (Homo sapiens, UniProt Q13148); experiment: Micro-radiobinding competition assay for binding affinity to TDP-43; conditions: for Ki: 0.24 nM to 2 μM vs tritiated reference ligand at 40 nM; for Human brain derived TDP-43 aggregates Mean % competition at 250 nM: non-radiolabeled compound at 250 nM vs tritiated reference ligand at 40 nM; for Human brain derived TDP-43 aggregates Mean % competition at 250 nM / Human brain derived TDP-43 aggregates Mean % competition at 2 μM: FTD sarkosyl-insoluble brain extracts; for Human brain derived TDP-43 aggregates Mean % competition at 2 μM: non-radiolabeled compound at 2 μM vs tritiated reference ligand at 40 nM
T1 construct: Human FTD sarkosyl-insoluble brain extracts were spotted onto microarray slides
Protocol: (§1) Human brain extracts were prepared as described in Laferriere et al., 2019, Nature Neurosc. A sample of brain tissue (frontal or temporal cortex) was homogenized at 1:4 (w/v) ratio in the homogenization-solubilization (HS) buffer at 4° C. using tissue homogenizer (Precellys) with CKmix homogenization tubes. The following sequence was used for homogenization: 3 cycles of 30 seconds at 5000 rpm (with 15 seconds pause between each cycle). Homogenized samples were aliquoted and stored at −80° C. in 1.5 mL low protein binding tubes.
(§2) Brain homogenates were thawed on ice and resuspended in HS buffer to obtain a final concentration of 2% sarkosyl, 1 unit/μL Benzonase and 1 mM MgCl2. The samples were then incubated at 37° C. under constant shaking at 600 rpm on a thermomixer for 45 minutes (min). The supernatants were collected in a new tube (sarkosyl-soluble fraction, S1). The pellet was resuspended in 1000 μL of myelin floatation buffer and centrifuged at 20,000 g for 60 min at 4° C. The supernatant was carefully removed to remove all the floating lipids. This step was repeated if all the lipids could not be removed in a single step. The pellet was subsequently washed with Phosphate-Buffered Saline (PBS) and centrifuged for 30 min at 20,000 g at 4° C. The final pellet was resuspended in 200 μL PBS and stored at −80° C. (sarkosyl-insoluble fraction). The samples were analyzed by immunoblotting in denaturing conditions.
Human FTD sarkosyl-insoluble brain extracts were spotted onto microarray slides. The slides were incubated with a tritiated reference ligand at 40 nM, and the example compounds (non-radiolabeled) at 2 μM and 250 nM. […] After incubation, slides were washed and scanned by a real-time autoradiography system (BeaQuant, ai4R). Quantification of the signal was performed by using the Beamage image analysis software (ai4R). Non-specific signal was determined with an excess of non-radiolabeled reference compound (2 μM) and specific binding was calculated by subtracting the non-specific signal from the total signal. Competition was calculated as percent, where 0% was defined as the specific binding in the presence of vehicle and 100% as the values obtained in the presence of excess of the non-radiolabeled reference compound. Ki values were calculated in GraphPad Prism8 by applying a nonlinear regression curve fit using a one site, specific binding model. Measurements were performed with at least two technical replicates in the two-concentration competition experiment and with one technical replicate in the experiments including a range of concentrations. For compounds tested in more than one experiment, the mean of the replicates or Ki values in independent experiments is reported.

[3] = molecular target: human FTD Type A sarkosyl-insoluble brain extracts (Homo sapiens, UniProt Q13148); experiment: Kd determination by micro-radiobinding assay on FTD Type A extracts; format: binding; conditions: tritiated compound 1.29 to 300 nM
Protocol: as §1, §2
Human FTD sarkosyl-insoluble brain extracts were spotted onto microarray slides. The slides were incubated with [^3H]-Compounds 1, 7, 8, 9, 15, 16 and 17 in a range of concentrations, varying from 1.29 to 300 nM. After incubation, slides were washed and scanned by a real-time autoradiography system (BeaQuant, ai4R). Quantification of the signal was performed by using the Beamage image analysis software (ai4R). Non-specific signal was determined with an excess of non-radiolabeled compound 1, 7, 8, 9, 15, 16 and 17 (1 μM), respectively, and specific binding was calculated by subtracting the non-specific signal from the total signal.
The Kd (Dissociation constant) and R^2 (parameter ranging between 0.0 and 1.0 that quantifies the goodness of fit, and the best curve fit obtained with value of 1.0) were obtained by fitting the specific binding data with non-linear regression analysis, using a one-site specific binding model in GraphPad Prism8.

T1 sequence (Q13148 261-414 limits assumed): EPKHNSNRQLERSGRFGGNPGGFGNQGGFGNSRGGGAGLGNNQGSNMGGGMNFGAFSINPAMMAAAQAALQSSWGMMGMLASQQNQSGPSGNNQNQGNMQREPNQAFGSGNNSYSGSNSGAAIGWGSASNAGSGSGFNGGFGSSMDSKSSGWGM
Chain of human FTD Type A sarkosyl-insoluble brain extracts (Q13148 263-414 limits assumed): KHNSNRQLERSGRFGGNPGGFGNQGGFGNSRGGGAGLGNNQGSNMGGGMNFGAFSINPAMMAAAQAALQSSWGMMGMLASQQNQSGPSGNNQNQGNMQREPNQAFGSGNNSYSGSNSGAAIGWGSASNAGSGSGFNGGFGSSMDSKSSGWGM

Structure (SMILES)	Classical autoradiography signal on AD tissue with abundant Abeta and Tau pathology [1]	Ki [2] [nM]	Human brain derived TDP-43 aggregates Mean % competition at 250 nM [2] [%]	Human brain derived TDP-43 aggregates Mean % competition at 2 μM [2] [%]	Kd [3] [nM]
O=C1c2sc(-c3ccc(N4CC[C@@H](F)C4)nc3F)nc2CCN1c1cccnc1 [Compound 1, 2-[2-fluoro-6-[(3R)-3-fluoropyrrolidin-1-yl]-3-pyridyl]-5-(3-pyridyl)-6,7-dihydrothiazolo[5,4-c]pyridin-4-one]	no signal on the tissue	22	65	78	
O=C1c2sc(-c3ccc(N4CCC(CO)CC4)nc3F)nc2CCN1c1cccnc1 [Compound 17, 2-(2-fluoro-6-(4-(hydroxymethyl)piperidin-1-yl)pyridin-3-yl)-5-(pyridin-3-yl)-6,7-dihydrothiazolo[5,4-c]pyridin-4(5H)-one]	no signal on the tissue	41	73	85	
[3H]c1cncc(N2CCc3nc(-c4cc([3H])c(N5CC[C@@H](F)C5)nc4F)sc3C2=O)c1 [[^3H]-Compound 1, tritiated 2-[2-fluoro-6-[(3R)-3-fluoropyrrolidin-1-yl]-3-pyridyl]-5-(3-pyridyl)-6,7-dihydrothiazolo[5,4-c]pyridin-4-one]					69 ± 21
[3H]C([3H])(O)C1CCN(c2ccc(-c3nc4c(s3)C(=O)N(c3cccnc3)CC4)c(F)n2)CC1 [[^3H]-Compound 17, 2-(2-fluoro-6-(4-(hydroxymethyl-t2)piperidin-1-yl)pyridin-3-yl)-5-(pyridin-3-yl)-6,7-dihydrothiazolo[5,4-c]pyridin-4(5H)-one]					25 ± 6
